Literature values, collected in PMC3401542 (Bioorganic & medicinal chemistry, 2012).

Tested on: N1 NAs
Conditions: read-out: inhibition (IC50) of N1 NAs; range over N1 NAs; ref [28]; cited from earlier work

CCC(CC)O[C@@H]1C=C(C(=O)O)C[C@H](N)[C@H]1NC(C)=O [Compound 1c, oseltamivir carboxylate]
IC50: 0.3 to 0.8 nM
